# Reference: patent publication US12329753B2, “Phosphodiesterase inhibitor treatment” (Cyrano Therapeutics, Inc., priority 2008, dated 2025)
# Assays:
# Format in all cases: in vivo, human
# patients with hyposmia [1] = experiment: Side effects of intranasal theophylline; conditions: intranasal 20 μg per naris once a day
# Experimental: The patients inserted a plastic syringe containing 0.4 ml of fluid (20 μg theophylline) into each naris once a day. […] The drug dose was delivered through a plastic nipple which fitted snugly onto the filled syringe which was attached directly to the nipple. One nipple was supplied for each set of two syringes in each application kit. The patient fitted the nipple on one syringe, placed the nipple securely into the lower naris and injected the contents of the syringe directly into the lower vault of one naris accompanied by a modest inhalation. This technique was then used for the second syringe used for the other naris. The patients were instructed to administer the drug either seated or standing with their head in an erect, vertical position.
# asthmatic patients = experiment: sGaw after inhaled dry powder in asthmatic patients, single blind study (Examples 5, 6); conditions: dry powder 2 mg inhaled
# Experimental: (§1) To test this theory, asthmatic patients are enrolled in a dose escalating single blind study. On arrival to the clinic, subjects are allowed to rest for 20 minutes before baseline measurements of FEV1 (six recordings) and sGaw (five recordings) are made. Subjects receive a dry powder dispenser loaded with a dose of 2 mg theophylline or a dry powder carrier. […] After each inhalation, measurements of sGaw are made at 1, 3, 5, 10, 15, 20, 25, and 30 minutes.
# On completion of the last recording, subjects inhale a 200 μg dose of salbutamol from a metered inhaler and a further measurement of sGaw is made after 15 minutes. Subjects are also monitored for coughing and are questioned about the taste of the drug.
# as §1, with “Asthmatic patients” for “To test this theory, asthmatic patients”, “of 1” for “of 2”, “mg IBMX formulated as a dry powder” for “mg theophylline”
# On completion of the last recording, subjects inhale a 200 μg dose of salbutamol from a metered inhaler and a further measurement of sGaw mad after 15 minutes. Subjects are also be monitored for coughing and are questioned about the taste of the drug.
# patients with hyposmia [2] = experiment: Subjective overall smell function response to oral theophylline
# Experimental: Independently, patients were also required to grade their ability to smell daily on a scale from 0-100, with 0 reflecting no overall smell function over a 24 hour period, 100 reflecting normal overall smell function over this period and numbers between 0-100 reflecting their estimation of their overall ability to smell odors over this period.
# After determination of hyposmia, patients were treated in an open label, fixed design, controlled open trial. Patients were given an oral extended release theophylline in divided daily doses taken in the middle of breakfast and lunch. All patients were initially given 200 mg of theophylline; changes in this dose were made based upon subjective responses to therapy. If at a subsequent return visit, patients reported ≥5% subjective improvement in overall smell function, they continued on this same dose of theophylline and were reevaluated after four to six months of continued treatment. Results from any subsequent return from these improved patients were not included in any subsequent data report. All subsequent comparisons between treated and untreated patients were made only between those patients continuing in the study compared to their own measurements obtained in the untreated state. If patients reported <5% subjective improvement, their theophylline dose was increased by 200 mg daily and they were scheduled for retesting at the study site after two to four months at this new dosage. For patients that reported <5% improvement, this sequence continued until patients reached 800 mg of theophylline, at which time the study was considered completed.
# (§2) Patients returned for reevaluation after two to four months of treatment. Measurements of blood serum theophylline were measured by a fluorescence polarization assay (Abbott, Chicago, IL). At this time, subjective changes in smell function were measured independently (compared to patient's memory of previous normal smell function monitored by use of the patients' daily measurements) using the scale from −100-0-+100 previously described (vs). After independently recording their subjective responses, smell function was measured for all four odors with DT, RT, ME and H determined without recourse to prior measurements.
# Subjective overall changes in smell acuity were reported by telephone and by FAX or email at two-four month intervals after treatment was initiated using the standardized form in which they measured daily changes in smell acuity using the −100-0-+100 scale as noted above (vs). Using the same criteria noted above, if at their initial two-four month call-in they reported improvement in smell acuity of ≥5%, they continued at 200 mg and returned to the study site at four-six months on this treatment dose. If they reported improvement in smell acuity of <5% their dose of theophylline was increased to 400 mg for an additional two-four months and they then called the study site at the end of this period.
# [3] = Blood serum theophylline, fluorescence polarization assay (Example 1)
# Experimental: as §2
compound,measurement,setting,value
Cn1c(=O)c2[nH]cnc2n(C)c1=O [theophylline],side effects,patients with hyposmia [1],no side effects
same,increase in sGaw versus 200 μg salbutamol,asthmatic patients,comparable to that produced by salbutamol
same,sGaw above baseline measurement,asthmatic patients; after 30 minutes,20%
same,patients improved ≥5% (subjective),"patients with hyposmia [2]; oral 200 mg daily, 34 of 199 returning patients",17.1%
same,improved patients who considered smell function returned to normal,"patients with hyposmia [2]; oral 200 mg daily, nine of the 34 improved",26.5%
same,patients reporting return to normal,"patients with hyposmia [2]; oral 200 mg, one of the improved non-returning patients",14.3%
same,patients reporting >5% improvement,"patients with hyposmia [2]; oral 200 mg, seven of the 15 non-returning patients",46.7%
same,patients improved ≥5% (subjective),"patients with hyposmia [2]; oral 400 mg daily, 35 of 120 patients",29.2%
same,improved patients who considered smell function returned to normal,"patients with hyposmia [2]; oral 400 mg daily, three of the 35 improved",8.6%
same,patients who considered smell function returned to normal,"patients with hyposmia [2]; oral 600 mg daily, 17 of 160 patients",10.6%
same,patients improved ≥5% (subjective),"patients with hyposmia [2]; oral 600 mg daily, 66 of 160 patients",41.2%
same,patients improved ≥5% (subjective),"patients with hyposmia [2]; oral 800 mg daily, 15 of 28 patients",53.6%
same,patients who considered smell function returned to normal,"patients with hyposmia [2]; oral 800 mg daily, three patients",33%
same,improved patients reporting return to normal,"patients with hyposmia [2]; oral 200-600 mg, Type III hyposmia, 3 of 5",60%
same,improved patients reporting return to normal,"patients with hyposmia [2]; oral 200-800 mg, Type I hyposmia, 5 of 32",15.6%
same,improved patients reporting return to normal,"patients with hyposmia [2]; oral 200-800 mg, Type II hyposmia, 26 of 129",20.2%
same,time course of subjective response,patients with hyposmia [2]; oral theophylline,little or no improvement before four-six weeks of treatment
same,responsive patients who considered smell function returned to normal,"patients with hyposmia [2]; whole study, 34 of 157",21.7%
same,mean serum theophylline,[3]; oral 200 mg daily,4.0±0.2
same,mean serum theophylline,[3]; oral 400 mg daily,7.4±0.4
